# Source: EP1144624B1, “HUMAN AND MOUSE TREK-1 POTASSIUM CHANNEL PROTEIN AND THEIR USE” (CENTRE NATIONAL DE LA RECHERCHE SCIENTIFIQUE, priority 1999, dated 2000)
# Key:
# [1] = system: Mouse TREK-1; conditions: whole cell, voltage ramp from holding potential -80 mV, room temperature; 0.8 mM chloroform, 1 mM halothane, 2 mM isoflurane, 0.6 mM diethyl ether (Figs. 1-3)
# Method: (§1) As performed herein, COS cells were seeded at a density of 20,000 cells per 35 mm dish 24 hours prior to transfection. Cells were transfected by the DEAE dextran protocol (1 µg DNA per plate). Mouse TREK-1 (GenBank Accession No. U73488), human TASK (GenBank Accession No. AF006823) and mouse TRAAK (GenBank Accession No. AF056492) fragments were amplified by polymerase chain reaction (PCR) and subcloned into the pIRES-CD8 vector. Transfected cells were visualized 48 hours after transfection using the anti-CD8 antibody coated beads method. For whole cell and excised patch experiments, the internal solution was 150 mM KCl, 3 mM MgCl2, 5mM EGTA and 10 mM HEPES at pH 7.2 with KOH and the external medium contained 150 mM NaCl, 5 mM KCL, 3 mM MgCl2, 1 mM CaCl2, 10 mM HEPES at pH 7.4 with NaOH. Cells were continuously superfused with a microperfusion system during the time course of the experiments (0.1 ml/min) performed at room temperature. A RK300 patch clamp amplifier (Biologic, Grenoble, France) was used for whole cell as well as single channel recordings. Ionic currents were monitored and recorded continuously using a DAT recorder (Biologic, Grenoble, France). Subsequently, data were replayed and sampled using pClamp software. Data analysis were performed using clampfit (pClamp) for whole cell recording as well as Biopatch (Biologic) software for single channel recordings. Membrane capacitance was measured during a […] hyperpolarizing step from a holding potential of -80 mV.
# (§2) General anesthetics were directly dissolved in saline solutions. All experiments were performed at room temperature (24°C). Solutions were prepared every 3 hours in gas-tight bottles as stock solutions (calculated concentrations of 5 10 mM). Serial dilutions were prepared just prior to the electrophysiological experiment. 2.5 ml of each experimental solution at the desired concentration was placed in a syringe connected to the experimental superfusion system. The electrophysiological measurements were performed within 45 minutes.
# (§3) The actual concentrations of anesthetics were subsequently determined by means of a gas chromatography method (HP 6890 equipped with a DB624 column) using FID detection. Sampled (2.5 ml of solution) were collected prior to (t0) and after perfusion (t45) through the experimental setup. Solutions were collected using gas impermeable tubing and stored in sealed glass containers at 4°C for subsequent analysis. Samplings and measurements were performed in duplicate. […] In the dose effect curves, the threshold concentrations were estimated as concentrations producing an increase higher than 10% in current amplitude.
# [2] = system: human TASK; conditions: whole cell, voltage ramp from holding potential -80 mV, room temperature; 0.8 mM chloroform, 1 mM halothane, 2 mM isoflurane, 0.6 mM diethyl ether (Figs. 1-3)
# Method: as §1, §2, §3
# [3] = system: mouse TRAAK; assay: Whole cell patch clamp of transfected COS cells expressing TRAAK; assay type: cell-based; conditions: voltage ramp from holding potential -80 mV, room temperature, 0.8 mM chloroform, 1 mM halothane, 2 mM isoflurane, 0.6 mM diethyl ether (Figs. 1-3)
# Method: (§4) Subsequently, data were replayed and sampled using pClamp software.
# General anesthetics were directly dissolved in saline solutions. All experiments were performed at room temperature (24°C). […] The electrophysiological measurements were performed within 45 minutes.
# as §3
# [4] = system: COS cells expressing TREK-1; conditions: 0.8 mM chloroform; not in mock-transfected cells, n = 5
# Method: As performed herein, COS cells were seeded at a density of 20,000 cells per 35 mm dish 24 hours prior to transfection. Cells were transfected by the DEAE dextran protocol (1 µg DNA per plate). […] Transfected cells were visualized 48 hours after transfection using the anti-CD8 antibody coated beads method. For whole cell and excised patch experiments, the internal solution was 150 mM KCl, 3 mM MgCl2, 5mM EGTA and 10 mM HEPES at pH 7.2 with KOH and the external medium contained 150 mM NaCl, 5 mM KCL, 3 mM MgCl2, 1 mM CaCl2, 10 mM HEPES at pH 7.4 with NaOH. Cells were continuously superfused with a microperfusion system during the time course of the experiments (0.1 ml/min) performed at room temperature. A RK300 patch clamp amplifier (Biologic, Grenoble, France) was used for whole cell as well as single channel recordings. Ionic currents were monitored and recorded continuously using a DAT recorder (Biologic, Grenoble, France). Subsequently, data were replayed and sampled using pClamp software. […] Membrane capacitance was measured during a 10 V hyperpolarizing step from a holding potential of -80 mV. […]
# General anesthetics were directly dissolved in saline solutions. […] Solutions were prepared every 3 hours in gas-tight bottles as stock solutions (calculated concentrations of 5 10 mM). […]
# [5] = system: human TREK-1 channel; assay: Whole cell patch clamp of transiently transfected COS cells expressing human TREK-1; assay type: cell-based
# Excerpt: The functional properties of the human TREK-1 channel were studied on the basis of transfected COS cells temporarily expressing the protein. Like the murine channel, the human channel is selective for potassium and is activated by cis-unsaturated fatty acids, volatile anesthetics and by stretching of the plasma membrane. The currents are recordings in the whole-cell configuration of the patch-clamp technique (imposed potential gradient from -130 to +100 mV). The inverse potential of the currents follow the equilibrium potential of potassium when the extracellular concentration of potassium ions climbs from 5 to 155 mM. […] When a pressure of -66 mmHg is applied on the membrane, the TREK-1 currents are activated in a reversible manner.
# as §4
SMILES,effect on TREK-1 K+ current [1],effect on TASK K+ current [2],effect on TRAAK K+ current [3],effect on membrane potential of COS cells expressing TREK-1 [4],effect on human TREK-1 currents ([5]; arachidonic acid 10 µM in the bath),effect on human TREK-1 currents ([5]; concentrations employed in general anesthesia)
"CCOCC [Diethyl ether, diethyl ether]",opened,decreased,did not affect,–,–,–
"FC(F)OC(Cl)C(F)(F)F (stereo not drawn) [Isoflurane, isoflurane]",activated,activated,without altering,–,–,–
ClC(Cl)Cl [chloroform],strongly and reversibly activated,slightly depressed,did not effect,reversibly and reproducibly hyperpolarized,–,–
CCCCC/C=C\C/C=C\C/C=C\C/C=C\CCCC(=O)O [arachidonic acid],–,–,–,–,induced activation,–
FC(F)(F)C(Cl)Br (stereo not drawn) [halothane],opened,opened,"not TRAAK, were opened",–,–,induced activation
